In series [1] the test system is blood-brain barrier. Briefly: In vivo tracer experiment: brain uptake of ^3 H-sucrose and ^125 I-BSA after i.v. injection. Further details: species or system mouse. To be noted: Example 11 text. The method, then: The test compound was delivered to a restrained, unanesthetized mouse (30-35 g) via the tail vein. […] Fifteen or sixty minutes after the injection, the animal, anesthetized with 2% Avertin, was perfused via venipuncture with phosphate buffered saline followed by fixative. The brain was removed immediately, the medulla, pons and hypothalamus excised and the remaining tissue homogenized by passsage through a 3 cc needle into a preweighed scintillation vial containing 1.5 ml Soluene (Packard). The vial was weighed to determine wet tissue weight. Ten ml of Inst-Gel (Packard) was added to each sample after overnight incubation at 75° C. The samples were counted for DPM by liquid scintillation spectrometry. Values are expressed as DPM/gm tissue. A minimum of four animals/group were used for each experiment. Data are expressed as the mean fold-increase which is derived by dividing the treatment value by the control value. Numbers in parenthesis represent the number of experiments carried out for the particular condition.

For series [2], the system named is blood-brain barrier. The following applies: in vivo; cited from earlier work.
A short description of series [3]: Behavioral assay: opioid-induced analgesia, hot plate. To be noted: Table 9, enkephalin 20 mg/kg. The series is classed as in vivo, mouse. The method, then: Morphine and the naturally occurring opioid peptides, endorphin and enkephalin, bind to μ opioid receptors in the brain and suppress the sensation of pain. […] Mice are placed on a surface uniformly heated to 55° C. The time it takes for the mouse to respond to the heat stimulus by licking its front or hind paws is measured. […] The latency is expressed as % analgesia. [formula] The purpose of these experiments is to test the ability of putative BBB openers to shift the morphine dose response curve to lower doses and thus have analgesic activity when delivered peripherally.

Series [4] deals with bovine brain capillary endothelial cells. Briefly: Transmonolayer (transendothelial cell) electrical resistance in the in vitro BBB model. To be noted: for activity at 0.2 µM / activity at 0.01 µM / activity at 0.03 µM / activity at 0.1 µM: Bos taurus, Endothelial cell, read-out: Resistance (% of control); for effect of phosphodiesterase inhibitors on resistance: FIG. 7, Rolipram or RO-20-1724 17.5 μM, by 30 minutes, no other cyclic AMP elevating agents. As to the method:
The degree of tightness of tight junctions can be also assessed by transcellular electrical resistance measurements. For transendothelial cell resistance measurements, cells were grown on a porous solid support, e.g., a filter or membrane attached to a holding device in order adequately to suspend the cellular monolayer, such as the Costar Transwell apparatus or the ICN Cellogen. […] Cells were maintained in a growth medium or physiological saline, and calomel electrodes on each of the endothelial cells are connected by a saturated KCl - 3% agar bridge. Current is passed between two Ag--AgCl electrodes and the voltage measured with a Keithly multimeter. Resistance is calculated from the change in voltage across the monolayer induced when a short current pulse (10-100 μamp) is applied. The resistance of the filter or membrane alone is subtracted. The resistance, multiplied by the surface area of the filter or membrane, yields the resistance in ohms-cm^2.
Bovine brain capillary endothelial cells were grown on polycarbonate filters in a conditioned growth medium containing either 5% or 10% PDHS. In controls, the growth medium contained 5% PDHS (.quadrature.) or 10% PDHS. […]
Bovine brain endothelial cells were dissociated and plated on tissue culture dishes in 50% MEM/FCS - 50% ADCM. […]
Bovine brain microvascular endothelial cells were isolated and grown on permeable filters in the BBB in vitro model of the invention. Cells were maintained in astrocyte-derived conditioned medium, but were not treated with agents that elevate cyclic AMP levels in such cells.
Resistance was then measured at various times.
The medium containing these cyclic AMP elevating agents was removed, and the cells were washed with fresh growth medium.

In series [5] the test system is Type III cyclic GMP-noninhibitable phosphodiesterase. Briefly: Inhibition of cyclic AMP phosphodiesterase of brain microvascular endothelial cells.
Series [6] relates to blood-brain barrier. The series can be described thus: Brain uptake of ^3 H-sucrose and ^125 I-BSA after intracarotid infusion. The series is classed as in vivo. The method, then: Staurosporine was administered by intracarotid infusion. The transport of ^3 H-sucrose and ^125 I-BSA was then determined. The data in Table 7 represent the amount of radioactivity remaining in the brain after infusion and washout. An average of 3-4 animals was used in each category.

The test system of series [7] is bovine endothelial cells. Briefly: Transport across high resistance monolayers of bovine endothelial cells on filters. Format: in vitro ADME. To be noted: FIG. 3; compared to cell-free filters. The source says: Still another means for assessing the tightness of junctions among endothelial cells in the blood-brain model of the invention is to compare the transport of a hydrophilic compound, e.g., sucrose, and a hydrophobic compound of similar size, e.g., chlorambucil, across filters with and without monolayered endothelial cells. When the transmonoloayer resistance is high, the transport of sucrose should be low compared to that of chlorambucil (or other hydrophobic compounds of similar size). Alternatively, when the resistance is high, the transport of sucrose should be much less (e.g., 50-fold or more) than across cell-free filters.

The test system of series [8] is bovine endothelial cells. The following applies: leaky tight junctions; cited from earlier work.
Series [9] concerns brain endothelial cells. The series can be described thus: Leukocyte binding to cultures of blood brain barrier endothelial cells. The series is classed as cell-based, bovine or human. To be noted: Table 14; Jurkat T-cell; + TNFα; two values per cell.
Protocol: When used to treat lymphocytes, the anti-β-1 hybridoma supernatant was used at a 1:2 dilution. The anti-α-4 antibody was purified by the manufacturer, and used at a 5 μg/ml concentration. The anti-β-2 was purified by the manufacturer, and used at 5 μg/ml. For treatment of lymphocytes, the lymphocytes were mixed with the above concentrations of antibody, and allowed to incubate on ice for a about 30 minutes prior to use. The cells were washed to remove unbound antibody, and resuspended in RPMI to a typical concentration of 10^7 cells/ml.
Bovine or human brain endothelial cells were maintained in accordance with the blood brain barrier model as described in the present specification. […]
In this manner, the endothelial cells were exposed to the agent on their ablumenal surface, as would be the typical situation during an inflammatory reaction in the brain. Immediately before the assay, the electrical resistance of the cultures was measured and the filters (supporting the endothelial cells) were washed at room temperature by dipping in three separate vats of D-MEM with 1% FBS and 20 mM Hepes (200 mls. each). […]
In the second method, the leukocytes were prelabeled with a radioactive tracer and the degree of binding was quantified by measuring the amount of radioactivity associated with the entire endothelial surface on the culture filter. […]
Where [10] appears, read: Table 7, Experiment 1, intracarotid infusion, 3-4 animals.

Several values for one entry are separate records, joined by “and”; a condition that tells them apart may be missing. Equal entries are not always repeated. Where two headings read alike, the source gives them in different places.

Turning to `OC[C@H]1O[C@@H](n2cnc3c(NC4CCCC4)ncnc32)[C@H](O)[C@@H]1O` [CPA, cyclopentyladenosine], in [1], the “increase of uptake by brain of small (sucrose) and large (BSA) molecules” value is recorded as at most 300%.

As to `CC(C)C[C@H](NC(=O)[C@H](Cc1ccccc1)NC(=O)CNC(=O)CNC(=O)[C@@H](N)Cc1ccc(O)cc1)C(=O)O` [Enkephalin], the “penetration into the brain / BBB crossing” value in series [2] is listed as “does not penetrate significantly into the brain”. The “Percent Analgesia” value in series [3] (Experiment 1) was found to be 2.8%; in series [3] (Experiment 2), 6.4%.

Consider `C=C[C@@]1(C)CC(=O)[C@]2(O)[C@@]3(C)[C@@H](O)CCC(C)(C)[C@@H]3[C@H](O)[C@H](OC(C)=O)[C@@]2(C)O1` [Forskolin, forskolin], for which, in [4] (brain capillary endothelial cells), the “enhancement of transmonolayer electrical resistance” value is “over 8 fold”.

`COC(=O)[C@@]1(O)C[C@H]2O[C@]1(C)n1c3ccccc3c3c4c(c5c6ccccc6n2c5c31)C(=O)NC4` [K252a]: the “reversibility of effect of protein kinase inhibitors” value in series [4] is “reversible”. Also, the “effect of protein kinase inhibitors on resistance” value in series [4] (10-200 nM) is recorded as “markedly reduce the resistance”. Further, the activity at 0.2 µM turned out to be 79% in series [4] (1 h), 25% in [4] (2.5 h) and 24% in series [4] (24 h).

Take `N[C@@H](Cc1ccc(O)c(O)c1)C(=O)O` [L-DOPA]: in series [2], the “penetration into the brain / BBB crossing” value is reported as “can cross the BBB”.

Turning to `C[C@H](Cc1ccccc1)Nc1ncnc2c1ncn2[C@@H]1O[C@H](CO)[C@@H](O)[C@H]1O` [R-PIA, N^6 -(phenylisopropyl)-adenosine], in series [1], the “increase of uptake by brain of small (sucrose) and large (BSA) molecules” value is at most 300%.

Turning to `CCCCOc1cc(CC2CNC(=O)N2)ccc1OC` (stereo not drawn) [RO-20-1724], the “inhibition of phosphodiesterase” value in series [5] is listed as “inhibited”. In addition, the “effect of phosphodiesterase inhibitors on resistance” value in series [4] is recorded as “substantially higher”.

In the case of `COc1ccc(C2CNC(=O)C2)cc1OC1CCCC1` (stereo not drawn) [Rolipram], the “inhibition of phosphodiesterase” value in [5] is given as “inhibited”. Besides, the “effect of phosphodiesterase inhibitors on resistance” value in series [4] is reported as “substantially higher”.

As to `CN[C@@H]1C[C@H]2O[C@@](C)([C@@H]1OC)n1c3ccccc3c3c4c(c5c6ccccc6n2c5c31)C(=O)NC4` [Staurosporine], the results for the “radioactivity remaining in the brain, ^3 H-Sucrose” value in [6] and in [6] (setting [10]) were 8.7 × 10^3 DPM and 24.3 × 10^3 DPM, respectively. For the same molecule, the “radioactivity remaining in the brain, ^125 I-BSA” value in series [6] (setting [10]) was 835 DPM; in series [6] (Table 7, Experiment 2, intracarotid infusion, 3-4 animals), 520 DPM. Further, in [6] (intracarotid infusion), the “effect on entry of tracers into the brain” value is “enhanced entry into the brain of both small (sucrose) and large (BSA) molecules”. Also, the activity at 0.01 µM in [4] (1 h) amounted to 108%; in series [4] (2.5 h) it was 20%; in series [4] (24 h) it was 5.2%. For the same molecule, the activity at 0.03 µM in series [4] (1 h) worked out at 64%; in series [4] (2.5 h) it was 7.7%; in series [4] (24 h), 2.3%. For the same molecule, the activity at 0.1 µM in series [4] (1 h) was found to be 5.5%; in series [4] (2.5 h), 0%; in [4] (24 h) it was 0%.

For the molecule `Nc1ncnc2c1nc(Sc1ccc(Cl)cc1)n2[C@@H]1O[C@@H]2COP(=O)(O)O[C@H]2[C@H]1O` [cyclic AMP analogue, 8-(4-chlorophenylthio) cyclic AMP], the “effect on transmonolayer electrical resistance” value in series [4] (Example 1, FIG. 1, 250 μM, 5% PDHS) is “greatly increased transmonolayer electrical resistance”.

For `Cc1[nH]c(=O)c(C#N)cc1-c1ccncc1` [milrinone], in series [4], the “effect of phosphodiesterase inhibitors on resistance” value is reported as “ineffective”.

Turning to `OC[C@H]1O[C@@](CO)(O[C@H]2O[C@H](CO)[C@@H](O)[C@H](O)[C@H]2O)[C@@H](O)[C@@H]1O` [sucrose], in [7], the “transport across filters with cells” value is “almost entirely prevented from leaking between the cells”. Also, the “difference in the rate of sucrose across filters with and without cells, previous models” value in [8] is given as 3 to 5 fold.

For `CCCOc1ccccc1-c1nc2nn[nH]c2c(=O)[nH]1` [zaprinast], the “effect of phosphodiesterase inhibitors on resistance” value in series [4] is recorded as “ineffective”.

As to TNFα, the “lymphocyte binding, Count per Minute” value in [9] is 1430 Count per Minute and 1150 Count per Minute.

The values above are taken from patent US5260210A, “Blood-brain barrier model” (priority 1990, dated 1993).
